This note sets out measurements from publication PMC10900488, “Synthesis and Evaluation of (Bis)benzyltetrahydroisoquinoline Alkaloids as Antiparasitic Agents” (JACS Au, 2024).

By IC50 is commonly meant the concentration that gives 50% inhibition.

Assay [1] concerns L. infantum promastigotes. Kind of assay: Antipromastigote assay (L. infantum), MTT colorimetric. The assay is classed as cell-based, Leishmania (L.) infantum. The settings on record: Leishmania infantum; ± SD; MTT, 48 h; read-out: L. infantum IC50 promastigotes.
The test system of another assay is mNG::RAD51 promastigotes. Description: mNG::RAD51 nuclear foci studies. The format is cell-based, Leishmania (L.) mexicana. The conditions noted are these: 50 μM, up to 24 h. From the text:
DSBs often lead to cytotoxicity, which could be an explanation for the observed compound activity.[44]−[46]Leishmania employ the RAD51 DNA recombinase protein as part of its DNA repair machinery to fix naturally occurring nuclear DSBs via homologous recombination.[47]−[50] Using a CRISPR/Cas9 gene editing strategy,[51] we generated a genetically modified cell line with mNeonGreen tagged RAD51. This would allow observation of fluorescent RAD51 protein recruitment to foci in the nucleus corresponding to DSB accumulation, as has been shown in T. brucei.[52],[53] Phleomycin was used as a positive control to induce DSBs,[54] which led to the expected observation of accumulation of RAD51 as green dots in the nucleus in 80% of cells from as early as 2 h posttreatment (Figure 2D). […] We can therefore conclude that the BI compounds tested are unlikely to act via DSBs (albeit this methodology is sensitive only to DSBs in nuclear DNA), and another mechanism of cell cycle disruption is responsible for the breakdown in the healthy cell cycle.
(§1) NCTC cells (6 × 10^4/well) were added to a 96-well plate. Treatments of the cells with selected compounds (serially diluted 1.5 to 200 μM) was performed in a humidified incubator for 96 h at 37 °C and with 5% CO2.
(§2) The MTT colorimetric method was used to determine the 50% cytotoxic concentration (CC50) and the selectivity index (CC50 against NCTC cells/IC50 against amastigotes).15 […]
(§3) […] […] Statistical significance was derived from a two-tailed T-test.
(§4) The Graph Pad Prism 5 software was used to perform sigmoid dose-response curves for the determination of […]
[…] At 6 h and 24 h post-treatment, a 1 mL aliquot was taken for imaging. The cell cycle experiment was preformed twice independently.
Generation of mNG::RAD51 tagged cell line
The single-stranded DNA-binding protein RAD51, associated with DNA Repair, LmxM.28.0550 was tagged with endogenous fluorescent protein mNeonGreen (mNG) at the N-terminus. […]
Primers for constructs and sgRNA were designed using LeishGEdit (http://www.leishGEdit.net). […]

The test system of assay [2] is L. mexicana promastigotes. Description: Cell cycle studies (K/N counts). The format is cell-based, Leishmania (L.) mexicana. The settings on record: 50 μM, 6 and 24 h. As for the experimental part: To investigate whether the morphological changes are a consequence of cell cycle interference, we analyzed the cell cycle over a 24 h period. Untreated L. mexicana promastigotes typically have a doubling time of 7.1 h, with each of the DNA-containing organelles replicating once in the order […], before cytokinesis, leading to two daughter cells.[37],[38] […] Cells treated with (S)-9a at 50 μM were studied after 6 and 24 h of treatment, and found to deviate from the typical cell cycle, giving rise to abnormal categories of cells with incorrectly replicated organelles (Figure 2C). For around 15% of the cells in 1K1N there was the presence of an eXtra structure (1K1N1X) that could not be clearly assigned as K or N, generally toward the posterior end of the cell body.
as §1, §2, §3, §4

With `COc1cc2c(cc1OC)[C@H](Cc1ccc(OC)c(OCc3ccccc3)c1)N(C)CC2` [(S)-9b], the half-inhibitory concentration (IC50) in assay [1] is 8.6 ± 0.8 µM. Also, in the assay on mNG::RAD51 promastigotes, the RAD51 nuclear foci entry is listed as “no RAD51 nuclear foci”.
On to `COc1cc2c(cc1OC)[C@@H](Cc1ccc(Oc3cc(C[C@H]4c5cc(OC)c(OC)cc5CCN4C)ccc3OC)cc1)N(C)CC2` [(S,R)-11, (−)-O,O′-dimethylgrisabine], for which the IC50 in assay [1] was 0.8 ± 0.01 µM.
As for `COc1cc2c(cc1OC)[C@H](Cc1ccc(Br)cc1)N(C)CC2` [(S)-9a], the IC50 in assay [1] was 18.4 ± 2.1 µM. The “cells in 1K1N with an extra structure (1K1N1X)” value in assay [2] is “around 15%”. Further, the “proportion of cells in the dividing stages (Non-1K1N)” value in assay [2] (versus the expected 10%) is on record as “doubled”. The RAD51 nuclear foci entry in the assay on mNG::RAD51 promastigotes is on record as “no RAD51 nuclear foci”.
